Measurements: patent US7728002B2, “Use of pyrrolopyridine compounds for activating PPAR receptors and treatment of conditions involving such receptors” (Laboratoires Fournier S.A., priority 2005, dated 2010)

What was measured:
db/db mice = db/db mice model: serum glucose, triglycerides, cholesterol; assay type: in vivo; details: serum 4 hours after final gavage
Description: The test protocol is as follows:
Homozygous male C57BL/Ks-db mice (db/db mice), 11-13 weeks old at the start of the studies, are divided into groups of 9-10 animals. The products are administered orally, once a day for 5 days. A group of mice receives the vehicle alone (methylcellulose solution at 0.5% or 1%). A blood sample is taken from the retro-orbital sinus before treatment and 4 hours after the final gavage. After centrifugation, the serum is collected and the levels of cholesterol, triglycerides and glucose are measured using a multiparameter analyzer with commercial products. The results are expressed as a percentage of variation on the final day relative to the control group.

[1] = tested on: cells of murine muscle origin C2C12; assay: β-oxidation of 14C-oleate on C2C12 cells differentiated as myotubes; assay type: cell-based; details: 10 μM, 48 hours incubation
Description: A second series of tests was performed with the compounds according to the invention, with the aim of confirming the activity deduced from their affinity for the receptors mentioned previously. This test consists in measuring the β-oxidation on cells of human hepatic origin HuH7 and cells of murine muscle origin C2C12 after differentiation as myotubes. The cells are inoculated in Petri dishes comprising a central well. The products are added to the culture medium and incubated for 48 hours at different concentrations. After incubation for 22 hours, ^14C-radiolabeled oleate (oleate 1-C14) is added to the culture medium. The β-oxidation reaction is stopped two hours later by adding 40% perchloric acid. The CO2 released during the oxidation of the oleate is trapped with KOH solution and then counted. Each test is performed three times. The results are expressed as a percentage of variation relative to the control dishes (dishes without compounds). According to this test, the compounds according to the invention increase the β-oxidation by up to +145% at a concentration of 10 μM on HuH7 cells.

[2] = 10 mg/kg orally once a day for 5 days
[3] = 100 mg/kg orally once a day for 5 days
[4] = 3 mg/kg orally once a day for 5 days

Row | SMILES | Cholesterol, percentage of variation relative to the control group (db/db mice; [2]) | Glucose, percentage of variation relative to the control group (db/db mice; [2]) | Triglycerides, percentage of variation relative to the control group (db/db mice; [2]) | further results
1 | Cc1cc(C)cc(S(=O)(=O)n2c(CCCCC(=O)O)cc3nc(Cl)ccc32)c1 [Ex. 259, 5-Chloro-1-[(3,5-dimethylphenyl)sulfonyl]-1H-pyrrolo[3,2-b]pyridine-2-pentanoic acid] | +32% | −51% | −16% | –
2 | O=C(O)CCCc1cc2nc(Cl)ccc2n1S(=O)(=O)c1ccc(-c2ccncc2)cc1 [Ex. 293, 5-Chloro-1-[[4-(4-pyridyl)phenyl]sulfonyl]-1H-pyrrolo[3,2-b]pyridine-2-butanoic acid] | +16% | −24% | −15% | –
3 | O=C(O)CCc1cc2nc(Cl)ccc2n1S(=O)(=O)c1ccccc1 [Example 2, 5-Chloro-1-(phenylsulfonyl)-1H-pyrrolo[3,2-b]pyridine-2-propanoic acid] | +41% | −36% | −32% | –
4 | O=C(O)CCCc1cc2nc(Cl)ccc2n1S(=O)(=O)c1ccc2ncsc2c1 [Example 4, 1-(6-Benzothiazolylsulfonyl)-5-chloro-1H-pyrrolo[3,2-b]pyridine-2-butanoic acid] | +4% | −57% | −45% | –
5 | O=C(O)CCCc1cc2nc(Cl)ccc2n1S(=O)(=O)c1ccccc1 [Example 10, 5-Chloro-1-(phenylsulfonyl)-1H-pyrrolo[3,2-b]pyridine-2-butanoic acid] | – | – | – | increase of β-oxidation, percentage of variation relative to control dishes [1]: 70%
6 | O=C(O)CCCc1cc2nc(C(F)(F)F)ccc2n1S(=O)(=O)c1ccccc1 [Example 20, 1-(Phenylsulfonyl)-5-(trifluoromethyl)-1H-pyrrolo[3,2-b]pyridine-2-butanoic acid] | +13% | −72% | −65% | –
7 | CC(C)OC(=O)C(C)(C)Oc1ccc(C(=O)c2ccc(Cl)cc2)cc1 [Fenofibrate, fenofibrate, reference compound] | – | – | – | Cholesterol, percentage of variation relative to the control group (db/db mice; [3]): +32%; Glucose, percentage of variation relative to the control group (db/db mice; [3]): −9%; Triglycerides, percentage of variation relative to the control group (db/db mice; [3]): −7%
8 | CN(CCOc1ccc(CC2SC(=O)NC2=O)cc1)c1ccccn1 (stereo not shown) [Rosiglitazone, rosiglitazone, reference compound] | – | – | – | Cholesterol, percentage of variation relative to the control group (db/db mice; [4]): −30%; Glucose, percentage of variation relative to the control group (db/db mice; [4]): −41%; Triglycerides, percentage of variation relative to the control group (db/db mice; [4]): −52%
